Source: patent publication US8134015B2, “Compound inhibiting in vivo phosphorous transport and medicine containing the same” (Kyowa Hakko Kirin Co., Ltd., priority 2003, dated 2012)

These compounds were tested against T1, rat NaPi-2b (Rattus norvegicus, UniProt Q9JJ09) (assay: Sodium-dependent phosphate uptake of Xenopus oocytes which expressed NaPi-2b (32P)). Conditions: Xenopus oocytes expressing rat NaPi-2b, 32P radioactive phosphorus; read-out: IC50 (phosphate uptake inhibitory activity).
T1 construct: expressed in transfected cells; host or cells: Xenopus oocytes injected with cRNA
T1 sequence (Q9JJ09 1-695): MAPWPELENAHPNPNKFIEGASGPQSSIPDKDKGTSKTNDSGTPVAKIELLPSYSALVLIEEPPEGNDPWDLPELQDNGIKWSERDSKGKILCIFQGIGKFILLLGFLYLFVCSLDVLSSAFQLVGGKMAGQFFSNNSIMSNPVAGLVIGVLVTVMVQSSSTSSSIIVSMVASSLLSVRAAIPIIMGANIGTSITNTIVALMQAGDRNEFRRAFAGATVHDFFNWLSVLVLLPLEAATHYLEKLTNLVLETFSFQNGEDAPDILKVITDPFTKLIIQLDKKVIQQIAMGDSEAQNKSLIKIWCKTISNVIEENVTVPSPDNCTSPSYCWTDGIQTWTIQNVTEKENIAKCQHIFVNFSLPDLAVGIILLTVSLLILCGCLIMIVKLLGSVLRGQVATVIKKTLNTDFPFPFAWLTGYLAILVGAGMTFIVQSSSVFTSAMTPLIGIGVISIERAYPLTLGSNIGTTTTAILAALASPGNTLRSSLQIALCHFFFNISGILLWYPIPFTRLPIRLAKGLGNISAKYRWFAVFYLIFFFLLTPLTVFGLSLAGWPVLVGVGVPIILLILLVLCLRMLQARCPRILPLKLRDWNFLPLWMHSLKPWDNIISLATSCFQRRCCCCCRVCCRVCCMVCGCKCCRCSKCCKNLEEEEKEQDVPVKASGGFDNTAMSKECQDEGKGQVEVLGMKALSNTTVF
Format: cell-based
Outline: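 Percent inhibition at 300 μM and 100 μM comes from the same inhibition curve of 32P uptake. Assay used oocytes expressing rat NaPi-2b after 2 days of culture.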

SMILES	IC50 [µM]
O=C(Nc1ccc(N2CCCC(C(=O)O)C2)cc1C(=O)N/N=C/c1ccc(Cl)c(C(F)(F)F)c1)c1cccc(CSCCO)c1 (stereo not shown) [Compound 925, 1-{3-(4-Chloro-3-trifluoromethyl-benzylidene-hydrazinocarbonyl)-4-[3-(2-hydroxy-ethylsulfanylmethyl)-benzoylamino]-phenyl}-piperidine-3-carboxylic acid]	25.5
Cc1ccc(/C=N/NC(=O)c2cc(N3CCSCC3)ccc2NC(=O)c2cccc(CSCCO)c2)cc1C [Compound 926, N-[2-(3,4-Dimethyl-benzylidene-hydrazinocarbonyl)-4-thiomorpholin-4-yl-phenyl]-3-(2-hydroxy-ethylsulfanylmethyl)-benzamide]	< 1
O=C(Nc1ccc(N2CCSCC2)cc1C(=O)N/N=C/c1ccc(Cl)c(C(F)(F)F)c1)c1cccc(CSCCO)c1 [Compound 927, N-[2-(4-Chloro-3-trifluoromethyl-benzylidene-hydrazinocarbonyl)-4-thiomorpholin-4-yl-phenyl]-3-(2-hydroxy-ethylsulfanylmethyl)-benzamide]	< 1
COc1ccc(/C=N/NC(=O)c2cc(N3CCSCC3)ccc2NC(=O)c2cccc(CSCCO)c2)cc1 [Compound 928, 3-(2-Hydroxy-ethylsulfanylmethyl)-N-[2-(4-methoxy-benzylidene-hydrazinocarbonyl)-4-thiomorpholin-4-yl-phenyl]-benzamide]	< 1
CCN(CC)CCN(C)Cc1cccc(C(=O)Nc2ccc(N3CCSCC3)cc2C(=O)N/N=C/c2ccc(Cl)c(C(F)(F)F)c2)c1 [Compound 929, N-[2-(4-Chloro-3-trifluoromethyl-benzylidene-hydrazinocarbonyl)-4-thiomorpholin-4-yl-phenyl]-3-{[(2-diethylamino-ethyl)-methyl-amino]-methyl}-benzamide]	< 1
COc1ccc(C(=O)Nc2ccc(N3CCCCC3)cc2C(=O)N/N=C/c2ncc[nH]2)cc1OC [Compound 937, N-[2-(1H-Imidazol-2-ylmethylene-hydrazinocarbonyl)-4-piperidin-1-yl-phenyl]-3,4-dimethoxy-benzamide]	137
COc1cc(/C=N/NC(=O)c2cc(N3CCCCC3)ccc2NC(=O)c2ccc(OC)c(OC)c2)ccc1O [Compound 938, N-[2-(4-Hydroxy-3-methoxy-benzylidene-hydrazinocarbonyl)-4-piperidin-1-yl-phenyl]-3,4-dimethoxy-benzamide]	1.41
COc1ccc(C(=O)Nc2ccc(N3CCOCC3)cc2C(=O)N/N=C/c2ccc(C)c(C)c2)cc1OC [Compound 939, N-[2-(3,4-Dimethyl-benzylidene-hydrazinocarbonyl)-4-morpholin-4-yl-phenyl]-3,4-dimethoxy-benzamide]	< 3
COc1cc(/C=N/NC(=O)c2cc(N3CCOCC3)ccc2NC(=O)c2ccc(OC)c(OC)c2)ccc1O [Compound 940, N-[2-(4-Hydroxy-3-methoxy-benzylidene-hydrazinocarbonyl)-4-morpholin-4-yl-phenyl]-3,4-dimethoxy-benzamide]	30.6
COc1ccc(/C=N/NC(=O)c2cc(N3CCOCC3)ccc2NC(=O)c2ccc(OC)c(OC)c2)cc1 [Compound 941, 3,4-Dimethoxy-N-[2-(4-methoxy-benzylidene-hydrazinocarbonyl)-4-morpholin-4-yl-phenyl]-benzamide]	8.72
CC(O)CN(Cc1cccc(C(=O)Nc2ccc(N3CCCCC3)cc2C(=O)NN=Cc2ccc(Cl)c(C(F)(F)F)c2)c1)CC(C)O (stereo not shown) [Compound 942, 3-{[Bis-(2-hydroxy-propyl)-amino]-methyl}-N-[2-(4-chloro-3-trifluoromethyl-benzylidene-hydrazinocarbonyl)-4-piperidin-1-yl-phenyl]-benzamide]	0.2
CCN(CC)CCOc1ccc(NC(=O)c2cccc(CN(CC(C)O)CC(C)O)c2)c(C(=O)NN=Cc2ccc(C)c(C)c2)c1 (stereo not shown) [Compound 943, 3-{[Bis-(2-hydroxy-propyl)-amino]-methyl}-N-[4-(2-diethylamino-ethoxy)-2-(3,4-dimethyl-benzylidene-hydrazinocarbonyl)-phenyl]-benzamide]	10.6
Cc1ccc(/C=N/NC(=O)c2cc(N3CCCC3=O)ccc2NC(=O)c2cccc(CN(CC(C)O)CC(C)O)c2)cc1C (stereo not shown) [Compound 944, 3-{[Bis-(2-hydroxy-propyl)-amino]-methyl}-N-[2-(3,4-dimethyl-benzylidene-hydrazinocarbonyl)-4-(2-oxo-pyrrolidin-1-yl)-phenyl]-benzamide]	12
CC(O)CN(Cc1cccc(C(=O)Nc2ccc(N3CCCC3=O)cc2C(=O)N/N=C/c2ccc(Cl)c(C(F)(F)F)c2)c1)CC(C)O (stereo not shown) [Compound 945, 3-{[Bis-(2-hydroxy-propyl)-amino]-methyl}-N-[2-(4-chloro-3-trifluoromethyl-benzylidene-hydrazinocarbonyl)-4-(2-oxo-pyrrolidin-1-yl)-phenyl]-benzamide]	19.4
CC(O)CN(Cc1cccc(C(=O)Nc2ccc(N3CCCC3=O)cc2C(=O)N/N=C/c2ccc(F)cc2)c1)CC(C)O (stereo not shown) [Compound 947, 3-{[Bis-(2-hydroxy-propyl)-amino]-methyl}-N-[2-(4-fluoro-benzylidene-hydrazinocarbonyl)-4-(2-oxo-pyrrolidin-1-yl)-phenyl]-benzamide]	30.2
Cc1ccc(/C=N/NC(=O)c2cc(N3CCCC3=O)ccc2NC(=O)c2cccc(CN(CC(C)O)CC(C)O)c2)cc1 (stereo not shown) [Compound 948, 3-{[Bis-(2-hydroxy-propyl)-amino]-methyl}-N-[2-(4-methyl-benzylidene-hydrazinocarbonyl)-4-(2-oxo-pyrrolidin-1-yl)-phenyl]-benzamide]	11.6
CC(O)CN(Cc1cccc(C(=O)Nc2ccc(OCC(O)CN3CCCCC3)cc2C(=O)N/N=C/c2ccc(Cl)c(C(F)(F)F)c2)c1)CC(C)O (stereo not shown) [Compound 950, 3-{[Bis-(2-hydroxy-propyl)-amino]-methyl}-N-[2-(4-chloro-3-trifluoromethyl-benzylidene-hydrazinocarbonyl)-4-(2-hydroxy-3-piperidin-1-yl-propoxy)-phenyl]-benzamide]	9.08

Same assay, conditions: phosphate uptake, oocytes expressing rat NaPi-2b; 300 μM, determined from inhibition curve

SMILES	inhibition at 300 µM [%]
COc1ccc(/C=N/NC(=O)c2cc(Br)sc2NC(=O)c2cccc(CN(C)C)c2)cc1 [Compound 930, N-[5-Bromo-3-(4-methoxy-benzylidene-hydrazinocarbonyl)-thiophen-2-yl]-3-dimethylaminomethyl-benzamide]	40.2
CCN(CC)CCN(C)Cc1cccc(C(=O)Nc2ccc(N3CCCN(C)CC3)cc2C(=O)N/N=C/c2ccc(OC)cc2)c1 [Compound 931, 3-{[(2-Diethylamino-ethyl)-methyl-amino]-methyl}-N-[2-(4-methoxy-benzylidene-hydrazinocarbonyl)-4-(4-methyl-[1,4]diazepan-1-yl)-phenyl]-benzamide]	31.2
CN1CCCN(c2ccc3nc(-c4cccc(CSCCO)c4)n(/N=C/c4ccc(Cl)c(C(F)(F)F)c4)c(=O)c3c2)CC1 [Compound 932, 3-[(4-Chloro-3-trifluoromethyl-benzylidene)-amino]-2-[3-(2-hydroxy-ethylsulfanylmethyl)-phenyl]-6-(4-methyl-[1,4]diazepan-1-yl)-3 H-quinazolin-4-one]	36.1
CCN(CC)CCN(C)Cc1cccc(-c2nc3ccc(N4CCCN(C)CC4)cc3c(=O)n2/N=C/c2ccc(OC)cc2)c1 [Compound 933, 2-(3-{[(2-Diethylamino-ethyl)-methyl-amino]-methyl}-phenyl)-3-[(4-methoxy-benzylidene)-amino]-6-(4-methyl-[1,4]diazepan-1-yl)-3H-quinazolin-4-one]	37.6
Cc1ccc(/C=N/NC(=O)c2cc(N3CCCC(C(=O)O)C3)ccc2NC(=O)c2cccc(CSCCO)c2)cc1C (stereo not shown) [Compound 934, 1-{3-(3,4-Dimethyl-benzylidene-hydrazinocarbonyl)-4-[3-(2-hydroxy-ethylsulfanylmethyl)-benzoylamino]-phenyl}-piperidine-3-carboxylic acid]	39.3
COc1ccc(/C=N/NC(=O)c2cc(N3CCCC3=O)ccc2NC(=O)c2cccc(CN(CC(C)O)CC(C)O)c2)cc1 (stereo not shown) [Compound 946, 3-{[Bis-(2-hydroxy-propyl)-amino]-methyl}-N-[2-(4-methoxy-benzylidene-hydrazinocarbonyl)-4-(2-oxo-pyrrolidin-1-yl)-phenyl]-benzamide]	45
Cc1ccc(/C=N/NC(=O)c2cc(OCC(O)CN3CCCCC3)ccc2NC(=O)c2cccc(CN(CC(C)O)CC(C)O)c2)cc1C (stereo not shown) [Compound 949, 3-{[Bis-(2-hydroxy-propyl)-amino]-methyl}-N-[2-(3,4-dimethyl-benzylidene-hydrazinocarbonyl)-4-(2-hydroxy-3-piperidin-1-yl-propoxy)-phenyl]-benzamide]	72.6
CCN(CC)CC(O)COc1ccc(NC(=O)c2cccc(CN(CC(C)O)CC(C)O)c2)c(C(=O)N/N=C/c2ccc(C)c(C)c2)c1 (stereo not shown) [Compound 951, 3-{[Bis-(2-hydroxy-propyl)-amino]-methyl}-N-[4-(3-diethylamino-2-hydroxy-propoxy)-2-(3,4-dimethyl-benzylidene-hydrazinocarbonyl)-phenyl]-benzamide]	68.5
